Experimental data taken from PubChem BioAssay (NCI).
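At the GI50, growth is halved. At the TGI there is no net growth.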

Tests used:
Test in all cases: DTP human tumour cell line panel, 384-well format
TK-10 renal = system: TK-10 renal
SK-MEL-28 melanoma = system: SK-MEL-28 melanoma
T-47D breast = system: T-47D breast
CAKI-1 renal = system: CAKI-1 renal
UACC-257 melanoma = system: UACC-257 melanoma
A498 renal = system: A498 renal
NCI-H226 lung = system: NCI-H226 lung
MDA-MB-231 breast = system: MDA-MB-231 breast
OVCAR-5 ovarian = system: OVCAR-5 ovarian
SW-620 colon = system: SW-620 colon
NCI-H460 NSCLC = system: NCI-H460 NSCLC
OVCAR-4 ovarian = system: OVCAR-4 ovarian
NCI-H23 lung = system: NCI-H23 lung
HCC-2998 colon = system: HCC-2998 colon
HOP-92 NSCLC = system: HOP-92 NSCLC
SF-539 CNS = system: SF-539 CNS
MDA-MB-435 melanoma = system: MDA-MB-435 melanoma
IGROV1 ovarian = system: IGROV1 ovarian
A549 NSCLC = system: A549 NSCLC
NCI/ADR-RES ovarian = system: NCI/ADR-RES ovarian
UO-31 renal = system: UO-31 renal
OVCAR-8 ovarian = system: OVCAR-8 ovarian
MDA-MB-468 breast = system: MDA-MB-468 breast
KM12 colon = system: KM12 colon
HCT-116 colon = system: HCT-116 colon
M14 melanoma = system: M14 melanoma
PC-3 prostate = system: PC-3 prostate
UACC-62 melanoma = system: UACC-62 melanoma
HT29 colon = system: HT29 colon
RXF 393 renal = system: RXF 393 renal
HCT-15 colon = system: HCT-15 colon
SF-268 CNS = system: SF-268 CNS
SK-MEL-2 melanoma = system: SK-MEL-2 melanoma
HOP-62 NSCLC = system: HOP-62 NSCLC
ACHN renal = system: ACHN renal
RPMI-8226 leukemia = system: RPMI-8226 leukemia
DU-145 prostate = system: DU-145 prostate
OVCAR-3 ovarian = system: OVCAR-3 ovarian
MALME-3M melanoma = system: MALME-3M melanoma
U251 glioblastoma = system: U251 glioblastoma
MOLT-4 leukemia = system: MOLT-4 leukemia
SF-295 CNS = system: SF-295 CNS
COLO 205 colon = system: COLO 205 colon
BT-549 breast = system: BT-549 breast
HL-60(TB) leukemia = system: HL-60(TB) leukemia
NCI-H522 lung = system: NCI-H522 lung
SK-MEL-5 melanoma = system: SK-MEL-5 melanoma
NCI-H322M lung = system: NCI-H322M lung
CCRF-CEM leukemia = system: CCRF-CEM leukemia
SR leukemia = system: SR leukemia
LOX IMVI melanoma = system: LOX IMVI melanoma
SK-OV-3 ovarian = system: SK-OV-3 ovarian
786-0 renal = system: 786-0 renal
SNB-19 CNS = system: SNB-19 CNS
MCF7 breast = system: MCF7 breast
SN12C renal = system: SN12C renal

Structure (SMILES): Cc1ncc(NC(=O)c2ccc(CN3CCN(C)CC3)c(C(F)(F)F)c2)cc1Nc1nccc(-c2cccnc2)n1
- GI50 (TK-10 renal): 12.9 µM
- TGI (TK-10 renal): 25.5 µM
- GI50 (SK-MEL-28 melanoma): 1.78 µM
- TGI (SK-MEL-28 melanoma): 14.9 µM
- GI50 (T-47D breast): 12.1 µM
- TGI (T-47D breast): 24.6 µM
- GI50 (CAKI-1 renal): 7.3 µM
- TGI (CAKI-1 renal): 19.4 µM
- GI50 (UACC-257 melanoma): 1.06 µM
- TGI (UACC-257 melanoma): 2.24 µM
- GI50 (A498 renal): 1.89 µM
- TGI (A498 renal): 3.55 µM
- GI50 (NCI-H226 lung): 12.4 µM
- TGI (NCI-H226 lung): 25 µM
- GI50 (MDA-MB-231 breast): 1.55 µM
- TGI (MDA-MB-231 breast): 2.98 µM
- GI50 (OVCAR-5 ovarian): 14.4 µM
- TGI (OVCAR-5 ovarian): 27.6 µM
- GI50 (SW-620 colon): 1.84 µM
- TGI (SW-620 colon): 3.29 µM
- GI50 (NCI-H460 NSCLC): 1.65 µM
- TGI (NCI-H460 NSCLC): 3.26 µM
- GI50 (OVCAR-4 ovarian): 2.63 µM
- TGI (OVCAR-4 ovarian): 14.1 µM
- GI50 (NCI-H23 lung): 13.7 µM
- TGI (NCI-H23 lung): 26.7 µM
- GI50 (HCC-2998 colon): 3.72 µM
- TGI (HCC-2998 colon): 17.6 µM
- GI50 (HOP-92 NSCLC): 6.68 µM
- TGI (HOP-92 NSCLC): 19.4 µM
- GI50 (SF-539 CNS): 1.32 µM
- TGI (SF-539 CNS): 2.6 µM
- GI50 (MDA-MB-435 melanoma): 4.56 µM
- TGI (MDA-MB-435 melanoma): 19.2 µM
- GI50 (IGROV1 ovarian): 13.2 µM
- TGI (IGROV1 ovarian): 26 µM
- GI50 (A549 NSCLC): 2.54 µM
- TGI (A549 NSCLC): 8.6 µM
- GI50 (NCI/ADR-RES ovarian): 10.6 µM
- TGI (NCI/ADR-RES ovarian): 22.4 µM
- GI50 (UO-31 renal): 11.4 µM
- TGI (UO-31 renal): 23.5 µM
- GI50 (OVCAR-8 ovarian): 11.3 µM
- TGI (OVCAR-8 ovarian): 23.5 µM
- GI50 (MDA-MB-468 breast): 10.8 µM
- TGI (MDA-MB-468 breast): 22.8 µM
- GI50 (KM12 colon): 1.57 µM
- TGI (KM12 colon): 3.11 µM
- GI50 (HCT-116 colon): 1.18 µM
- TGI (HCT-116 colon): 2.43 µM
- GI50 (M14 melanoma): 0.798 µM
- TGI (M14 melanoma): 12.3 µM
- GI50 (PC-3 prostate): 13.6 µM
- TGI (PC-3 prostate): 26.6 µM
- GI50 (UACC-62 melanoma): 1.35 µM
- TGI (UACC-62 melanoma): 13.8 µM
- GI50 (HT29 colon): 1.04 µM
- TGI (HT29 colon): 2.22 µM
- GI50 (RXF 393 renal): 1.66 µM
- TGI (RXF 393 renal): 3.59 µM
- GI50 (HCT-15 colon): 1.82 µM
- TGI (HCT-15 colon): 3.6 µM
- GI50 (SF-268 CNS): 10.4 µM
- TGI (SF-268 CNS): 22.2 µM
- GI50 (SK-MEL-2 melanoma): 2.46 µM
- TGI (SK-MEL-2 melanoma): 8.05 µM
- GI50 (HOP-62 NSCLC): 13.8 µM
- TGI (HOP-62 NSCLC): 26.8 µM
- GI50 (ACHN renal): 12.6 µM
- TGI (ACHN renal): 25.2 µM
- GI50 (RPMI-8226 leukemia): 0.745 µM
- TGI (RPMI-8226 leukemia): 2 µM
- GI50 (DU-145 prostate): 15.4 µM
- TGI (DU-145 prostate): 28.8 µM
- GI50 (OVCAR-3 ovarian): 1.74 µM
- TGI (OVCAR-3 ovarian): 3.31 µM
- GI50 (MALME-3M melanoma): 0.289 µM
- TGI (MALME-3M melanoma): 1.46 µM
- GI50 (U251 glioblastoma): 1.82 µM
- TGI (U251 glioblastoma): 3.31 µM
- GI50 (MOLT-4 leukemia): 1.28 µM
- TGI (MOLT-4 leukemia): 2.54 µM
- GI50 (SF-295 CNS): 19.5 µM
- TGI (SF-295 CNS): 33.7 µM
- GI50 (COLO 205 colon): 1.27 µM
- TGI (COLO 205 colon): 14.5 µM
- GI50 (BT-549 breast): 2.17 µM
- TGI (BT-549 breast): 3.69 µM
- GI50 (HL-60(TB) leukemia): 0.956 µM
- TGI (HL-60(TB) leukemia): 2.12 µM
- GI50 (NCI-H522 lung): 3.05 µM
- TGI (NCI-H522 lung): 17.8 µM
- GI50 (SK-MEL-5 melanoma): 1.44 µM
- TGI (SK-MEL-5 melanoma): 16.4 µM
- GI50 (NCI-H322M lung): 10.9 µM
- TGI (NCI-H322M lung): 22.9 µM
- GI50 (CCRF-CEM leukemia): 1.61 µM
- TGI (CCRF-CEM leukemia): 2.96 µM
- GI50 (SR leukemia): 1.66 µM
- TGI (SR leukemia): 3.02 µM
- GI50 (LOX IMVI melanoma): 1.95 µM
- TGI (LOX IMVI melanoma): 3.37 µM
- GI50 (SK-OV-3 ovarian): 1.94 µM
- TGI (SK-OV-3 ovarian): 3.89 µM
- GI50 (786-0 renal): 1.51 µM
- TGI (786-0 renal): 2.89 µM
- GI50 (SNB-19 CNS): 15.7 µM
- TGI (SNB-19 CNS): 29.2 µM
- GI50 (MCF7 breast): 1.43 µM
- TGI (MCF7 breast): 2.79 µM
- GI50 (SN12C renal): 17.4 µM
- TGI (SN12C renal): 31.2 µM
